Values after ≈ are worked out from the molar mass of the structure shown. Read-outs that look alike come from different tables or passages of the source.
What was measured:
[1] = oral, liver first pass effect; cited from earlier work
[2] = Chrysin comparison value; cited from earlier work
[3] = tested on: 5 cancers cells (MCF-7, H-460, BGC-823, PC-3, Hep G2); test: Anti-cancer cells proliferation activity, average of 5 cancer cells; assay type: cell-based; settings: average of 5 cancer cells, MTT, 48 h
From the text: Anti-cancer cells proliferationactivity of in vitro CH-j and CH-f were shown in TABLE 2 for the results of the screening of 5 cancers cells.

[4] = Solubility in Octanol, water and pH media; assay type: physicochemical; settings: 37° C.
Description: (§1) The solubility and log P of acetyl ChrysinMannich base derivatives see TABLE 1.
(§2) CH-j is pKa 5.3, log P 1.63 in Octanol/Water at 37° C. […] (BA-j 77m/ml). CH-j belongs to BCS II (low solubility, high permeability) and solubility presents the pH dependence. […] CH-j is a pH dependent fast release. […] It is speculated that CH-j has more appropriate log P and solubility with more likely entering tissue cells than others solubility acetyl Chrysin Mannich base derivatives.
(§3) (about 20 times BA-f 277 μg/ml) and 564 μg/ml in water at 37° C. (about 1000 times BA-f 0.53m/ml). CH-f is BCS I (high solubility and permeability) and solubility presents the pH dependence. It is speculated that CH-f has more appropriate log P and solubility with entering systemic (blood system and tissue cells) than others solubility acetyl Chrysin Mannich base derivatives.

log P in Octanol/Water = assay type: physicochemical; settings: octanol/water, Octanol/Water at 37° C.
Description: as §1, §2, §3

pKa = assay type: physicochemical
Description: as §2, §3

BGC-823 = test: Annexin V-FITC-PI double fluorescence, apoptosis and necrosis; assay type: cell-based; settings: 24 h
From the text: There is a series of morphological characteristic changes in the apoptosis of cells, in which the change of the plasma membrane is one of the characteristics of early apoptosis. The cytoplasm is flipped from the inside of the cytoplasm to the outer surface of the cell when the cell apoptosis, Annexin V is a Ca^++ dependent phospholipid binding protein, which has a high affinity with phospholipid-peptide-serine, which can be combined with the phospholipid peptide specificity that is exposed to the extracellular cells. However, cytoplasm transfer to cell membrane is not unique to apoptosis, but also can occur in cell necrosis. The difference between the two cell death modes is that the cell membrane is intact in the initial stage of apoptosis, and the integrity of the cell membrane in its early stage is destroyed. PI is a nucleic acid dye that cannot pass through the intact cell membrane, but in the cell and necrotic cells in the middle and late stage of apoptosis, the PI can dye the nucleus through the cell membrane. Annexin V-FITC-PI was used to detect apoptosis and necrotic cell ratio on flow cytometry.
A relatively small increase in apoptotic cells is increased.
FIG. 3-3 Annexin V-FITC/PI staining results for BGC-823.

Hep G2 = test: NaOCl level, BODTPY-OCl fluorescent probe imaging; assay type: cell-based; settings: CH-j 40 μM or HCPT 5 μM for 4 h
Description: In vitro cultured Hep G2 was given by BODTPY-OCl selective fluorescent probe 5 μM for 0.5 h, added CH-j 40 μM or HCPT 5 μM for 4 h, and performed fluorescence imaging.

[5] = organic solvent or mixture, Octanol, read-out: Solubility in Octanol
[6] = water, read-out: Solubility in H2O

| IC50 [3] [µM] | solubility [4, 5] [µg/mL] | solubility [4, 6] [µg/mL] | logP (log P in Octanol/Water) | pKa (pKa) | solubility ([4]; water, text values of BA-j and BA-f, read-out: Solubility in water) [µg/mL] | SMILES | Glucose aldehyde acid metabolism [1] [%] | Maximum drug concentration [2] [µM] | Apoptosis and necrosis by Annexin V-FITC-PI (BGC-823) | NaOCl, yellow green fluorescence (Hep G2) |
| --- | --- | --- | --- | --- | --- | --- | --- | --- | --- | --- |
| 30 |  |  |  |  |  | O=c1cc(-c2ccccc2)oc2cc(O)cc(O)c12 [Chrysin] | > 95 | 0.64 |  |  |
|  | 733 (≈ 1670 µM) | 6.2 (≈ 14.1 µM) | 2.07 | 4.8 |  | CC(=O)c1c(O)c(CN2CCN(CCO)CC2)c2oc(-c3ccccc3)cc(=O)c2c1O [CH-i, 6-Acetyl-5,7-dihydroxy-8-[4-(2-hydroxy-ethyl)-piperazin-1-ylmethyl]-2-phenyl-chromen-4-one] |  |  |  |  |
|  | 3410 (≈ 8330 µM) | 52 (≈ 127 µM) | 1.82 | 4.5 |  | CC(=O)c1c(O)c(CN2CCC(O)CC2)c(O)c2c(=O)cc(-c3ccccc3)oc12 [is-CH-j, 8-Acetyl-5,7-dihydroxy-6-(4-hydroxy-piperidin-1-ylmethyl)-2-phenyl-chromen-4-one] |  |  |  |  |
|  | 120 (≈ 292 µM) | 0.1 (≈ 0.243 µM) | 3.08 | 4.8 |  | CC(=O)c1c(O)c(CN2CCSCC2)c2oc(-c3ccccc3)cc(=O)c2c1O [CH-e, 6-Acetyl-5,7-dihydroxy-2-phenyl-8-(thiomorpholin-4-ylmethyl)-2-phenyl-chromen-4-one] |  |  |  |  |
|  |  |  |  |  |  | CC[C@@]1(O)C(=O)OCc2c1cc1n(c2=O)Cc2cc3cc(O)ccc3nc2-1 [HCPT, reference compound] |  |  | induce apoptosis at low doses, and high dose can cause the inflammatory necrosis of early cells | present fluorescence |
|  | 580 (≈ 1470 µM) | 1.4 (≈ 3.54 µM) | 2.62 | 5.1 |  | CC(=O)c1c(O)c(CN2CCOCC2)c2oc(-c3ccccc3)cc(=O)c2c1O [CH-d, 6-Acetyl-5,7-dihydroxy-8-morpholin-4-ylmethyl-2-phenyl-chromen-4-one] |  |  |  |  |
|  | 2550 (≈ 6230 µM) | 43.4 (≈ 106 µM) | 1.77 | 5.4 |  | CC(=O)c1c(O)c(CN2CCCC2CO)c2oc(-c3ccccc3)cc(=O)c2c1O (centres unmarked) [CH-h, 6-Acetyl-5,7-dihydroxy-8-(2-hydroxymethyl-pyrrolidin-1-ylmethyl)-2-phenyl-chromen-4-one] |  |  |  |  |
|  | 277 (≈ 724 µM) |  | 1.7 | 5.6 | 0.53 (≈ 1.39 µM) | CN1CCN(Cc2c(O)c(O)c(O)c3c(=O)cc(-c4ccccc4)oc23)CC1 [BA-f, 5,6,7-trihydroxy-8-(4-methylpiperazin-1-ylmethyl)-2-phenyl-chromen-4-one, reference compound] |  |  |  |  |

— patent US10471054B2, “CDK1 inhibitors of acetyl chrysin mannich base derivatives, synthesis and use thereof” (priority 2016, dated 2019)
